{
  "source": "patent US20060263761A1",
  "about": "“Methods and compositions for beryllium-induced Disease” (priority 2005, published 2006)",
  "assay_type_in_all_cases": "cell-based, human",
  "key": {"[1]": {"tested_on": "PBMCs (IFN-γ-producing cells)", "experiment": "IFN-γ ELISPOT assay on PBMCs after BeSO4 exposure", "settings": "for ratio of IFN-γ- to IL-2-secreting cells (median): ELISPOT; for subjects demonstrating beryllium-induced IFN-γ production: threshold >1.4 SFU", "procedure": "(§1) In one exemplary method, ELISPOT assays were performed using plates (ImmunoSpot M200, BD Biosciences Pharmingen) that were coated with, IFN-γ or IL-2 capture mAb (BD Biosciences Pharmingen) overnight and blocked with Blocking Solution containing RPMI 1640 supplemented with 10% heat-inactivated fetal bovine serum (Tissue Culture Biologicals, Tulare Calif.), 20 mM HEPES, 1 mM sodium pyruvate, 100 U/ml penicillin, 100 μg/ml streptomycin, and 2 mM L-glutamine (e.g. all from Life Technologies, Gaithersburg Md.) for 2 h at room temperature. Freshly isolated PBMCs (5×10^5 cells/well) were added to wells and incubated overnight at 37° C. in a humidified 5% CO2 atmosphere with medium, PHA, or BeSO4. ELISpot assays were performed in triplicate. The wells were washed, and IFN-γ or IL-2 detection mAbs (BD Biosciences Pharmingen) were added, and the proteins were visualized by successive additions of avidin-horseradish peroxidase and 3-amino-9-ethylcarbazole (AEC) substrate reagent (BD Biosciences Pharmingen). The ELISpot plates were analyzed using a for example a CTL Immunospot Analyzer (Cellular Technology Ltd., Cleveland, Ohio), and results are reported as mean±SD spot-forming units (SFU) per well minus background SFU.\nIn one exemplary method ELISPOT assays were performed on fresh PBMCs from 12 healthy control, 18 BeS and 33 CBD subjects (Table 1)."}, "PBMCs": {"tested_on": "PBMCs", "experiment": "Lymphocyte proliferation assay ([3H]thymidine, BeLPT)", "procedure": "In one exemplary method, proliferation assays were performed using PBMCs (2.5×10^5 cells/well) cultured for 4-6 days in complete culture media containing RPMI 1640 supplemented with 10% heat-inactivated human serum (Gemini Bio-Products, Woodland Calif.) with the following stimulants: medium, 2.5 μg/ml phytohemagglutinin (PHA), 1×10^−4 M or 1×10^−5 M BeSO4 (example of one beryllium composition). The wells were pulsed with 1 μCi of [^3H] thymidine for 18 hours, and incorporation of radioactivity was determined by β-emission spectroscopy. Proliferation assays were performed in quadruplicate. The data are presented as stimulation index (SI) with a positive response defined as […]. Any other means known in the art for assessing proliferation of cells may be used.\nIn another exemplary method, PBMCs from healthy control, BeS, and CBD subjects described above were examined for beryllium-induced proliferation at the same time as the ELISPOT assays were performed. […] The median SI for PBMCs from BeS and CBD patients exposed to 1×10^−4 M BeSO4 was 2.8 (range, 0.5-42) and 3.5 (0.6-85) (P=0.49), respectively. The findings were similar when expressed as ΔCPM, with the median ΔCPM from BeS and CBD patients exposed to 1×10^−4 M BeSO4 being 917 (range, 0-36,355) and 1514 (range, 0-20,884), respectively (P=0.85). […] In one exemplary method, ELISPOT analysis for IFN-γ was able to detect the presence of beryllium-specific T cells in blood. […] In 6 BeS and 7 CBD subjects, the ELISPOT assay detected IFN-γ- and/or IL-2-secreting cells in response to beryllium exposure in culture while no beryllium-induced proliferation was detected at the time of the study. […] For example, in CBD patients, the median number of beryllium-induced, IFN-γ-expressing cells was 83 SFU (range, 0-645) in subjects with and 48 SFU (range, 10-112; P=0.3) in subjects without beryllium-induced proliferation. Beryllium-induced proliferation occurred in the absence of detectable cytokine secretion in only 2 CBD patients, while both ELISPOT analysis and proliferation assay were negative in 2 BeS and 3 CBD patients."}, "[2]": {"tested_on": "PBMCs (IL-2-producing cells)", "experiment": "IL-2 ELISPOT assay on PBMCs after BeSO4 exposure", "procedure": "as §1"}, "CD4+ T cells": {"tested_on": "CD4+ T cells", "experiment": "Intracellular cytokine staining (IFN-γ, IL-2) by flow cytometry", "procedure": ". Cells were stained with mAbs directed against CD4 and CD8 (BD Biosciences Pharmingen) followed by fixation, permeabilization, and staining with mAbs directed against IFN-γ and/or IL-2 (Caltag, Burlingame, Calif.). The lymphocyte population was identified using forward and 90° light scatter patterns, and fluorescence intensity was analyzed using a FACScaliber cytometer (Becton Dickinson) as previously described but any means known in the art may be used to identify this population.\nFor example, the ratio of IFN-γ- to IL-2-secreting cells determined by ELISPOT analysis was 2.7 (median; range, 0.5-167) for CBD patients (n=33) and 1.8 (median; range, 0.5-6.9) for BeS patients (n=18) (P=0.07). To further address this issue, intracellular cytokine staining was performed on blood from 11 of the 33 CBD subjects who had large enough populations (>0.04%) of circulating beryllium-specific CD4+ T cells to allow for evaluation of Th1-type cytokine expression after beryllium exposure in culture. […] IFN-γ and IL-2 expression in CD4− T cells was equal to background levels. In the peripheral blood, the beryllium-specific CD4+ T cells appeared equally divided into two groups: T cells capable of expressing both IFN-γ and IL 2 and another expressing only IFN-γ (FIG. 4B). Similar to T cells in the lung (12), almost no cells were detected that produced IL-2 in the absence of IFN-γ expression. In these eleven CBD patients, the median percentage of IFN-γ-expressing CD4+ T cells was 0.29% (range, 0.1%-1.1%) compared to 0.07% for IL-2 (0%-0.49%; P=0.007) (FIG. 4C)."}, "[3]": {"settings": "representative CBD subject, FIG. 4A, following beryllium exposure"}},
  "data": [
    {"smiles": "O=S(=O)([O-])[O-].[Be+2]", "note": "[BeSO4, Beryllium sulfate]", "values": [
      {"measurement": "ratio of IFN-γ- to IL-2-secreting cells (median)", "setting": "[1]; BeS patients (n=18)", "value": 1.8},
      {"measurement": "median number of IFN-γ producing cells in blood", "setting": "[1]; BeS subjects (n=18), 1×10^−4 M BeSO4", "value": 6.3, "unit": "SFU"},
      {"measurement": "subjects demonstrating beryllium-induced IFN-γ production", "setting": "[1]; BeS subjects, 13 of 18, 1×10^−4 M BeSO4", "value": 72, "unit": "%"},
      {"measurement": "patients with a positive ELISPOT assay", "setting": "[1]; CBD and BeS subjects, 41 of 51", "value": 80, "unit": "%"},
      {"measurement": "median number of IFN-γ producing cells in blood", "setting": "[1]; CBD patients (n=33), 1×10^−4 M BeSO4", "value": 52, "unit": "SFU"},
      {"measurement": "ratio of IFN-γ- to IL-2-secreting cells (median)", "setting": "[1]; CBD patients (n=33)", "value": 2.7},
      {"measurement": "median number of beryllium-induced, IFN-γ-expressing cells", "setting": "[1]; CBD patients with beryllium-induced proliferation", "value": 83, "unit": "SFU"},
      {"measurement": "median number of beryllium-induced, IFN-γ-expressing cells", "setting": "[1]; CBD patients without beryllium-induced proliferation", "value": 48, "unit": "SFU"},
      {"measurement": "subjects demonstrating beryllium-induced IFN-γ production", "setting": "[1]; CBD subjects, 28 of 33, 1×10^−4 M BeSO4", "value": 85, "unit": "%"},
      {"measurement": "IFN-γ SFU (mean±SD) of the one healthy control with a positive response", "setting": "[1]; healthy control subject, 1×10^−4 M BeSO4", "value": "2.0±2.1", "unit": "SFU per 5×10^5 cells"},
      {"measurement": "median number of IFN-γ producing cells in blood", "setting": "[1]; normal control subjects (n=12), 1×10^−4 M BeSO4", "value": 0.4, "unit": "SFU"},
      {"measurement": "median number of IFN-γ producing cells in blood", "setting": "[1]; treated CBD subjects, 1×10^−4 M BeSO4", "value": 117},
      {"measurement": "median number of IFN-γ producing cells in blood", "setting": "[1]; untreated CBD subjects, 1×10^−4 M BeSO4", "value": 34},
      {"measurement": "patients with a positive proliferative response", "setting": "PBMCs; BeS patients, 10 of 18, 1×10^−4 M BeSO4", "value": 55, "unit": "%"},
      {"measurement": "median SI (stimulation index)", "setting": "PBMCs; BeS patients, 1×10^−4 M BeSO4", "value": 2.8},
      {"measurement": "median ΔCPM", "setting": "PBMCs; BeS patients, 1×10^−4 M BeSO4", "value": 917},
      {"measurement": "subjects with a positive beryllium-induced proliferative response (BeLPT)", "setting": "PBMCs; CBD and BeS subjects, 33 of 51", "value": 65, "unit": "%"},
      {"measurement": "patients with a positive proliferative response", "setting": "PBMCs; CBD patients, 23 of 33, 1×10^−4 M BeSO4", "value": 70, "unit": "%"},
      {"measurement": "median SI (stimulation index)", "setting": "PBMCs; CBD patients, 1×10^−4 M BeSO4", "value": 3.5},
      {"measurement": "median ΔCPM", "setting": "PBMCs; CBD patients, 1×10^−4 M BeSO4", "value": 1514},
      {"measurement": "median SI (stimulation index)", "setting": "PBMCs; control subjects, 1×10^−4 M BeSO4", "value": 0.5},
      {"measurement": "median SI (stimulation index)", "setting": "PBMCs; control subjects, 1×10^−5 M BeSO4", "value": 0.7},
      {"measurement": "median number of IL-2-producing cells", "setting": "[2]; BeS subjects", "value": 2.8, "unit": "SFU"},
      {"measurement": "median number of IL-2-producing cells", "setting": "[2]; CBD patients", "value": 16, "unit": "SFU/5×10^5 cells"},
      {"measurement": "median number of IL-2-producing cells", "setting": "[2]; normal control subjects", "value": 0, "unit": "SFU"},
      {"measurement": "median percentage of IFN-γ-expressing CD4+ T cells", "setting": "CD4+ T cells; eleven CBD patients", "value": 0.29, "unit": "%"},
      {"measurement": "median percentage of IL-2-expressing CD4+ T cells", "setting": "CD4+ T cells; eleven CBD patients", "value": 0.07, "unit": "%"},
      {"measurement": "CD4+ T cells expressing IFN-γ", "setting": "CD4+ T cells; [3]", "value": 1.1, "unit": "%"},
      {"measurement": "CD4+ T cells expressing IL-2", "setting": "CD4+ T cells; [3]", "value": 0.5, "unit": "%"}
    ]}
  ]
}
